Earlier results in US20050059087A1, “Antibodies directed to the deletion mutants of epidermal growth factor receptor and uses thereof” (priority 2003, published 2005).

Columns and labels:
[1] = tested on: human acute lymphoblastic leukemia line CEM; settings: in vitro; cited from earlier work
[2] = tested on: L1210 cells; settings: treatment of L1210 cells in vivo; cited from earlier work
[3] = vs methotrexate, daunorubicin, vincristine; cited from earlier work
[4] = tested on: P388 lymphocytic leukemia system; settings: in vivo; cited from earlier work
[5] = tested on: P388, L1210, and LY5178 murine leukemic cell suspensions; settings: in vitro; cited from earlier work

COc1cc2cc(c1Cl)N(C)C(=O)C[C@H](OC(=O)[C@H](C)N(C)C(C)=O)[C@]1(C)O[C@H]1[C@H](C)[C@@H]1C[C@@](O)(NC(=O)O1)[C@H](OC)/C=C/C=C(\C)C2 [Maytansine]
Inhibitory concentration [1]: ≥ 10^−7 mg/ml
Cells accumulating in mitosis [2]: 67%
Cytotoxicity relative to conventional cancer chemotherapeutic agents [3]: 100 to 1000 fold
Dosage range over which tumor growth was inhibited [4]: 50- to 100 fold
Inhibitory doses [5]: 10^−3 to 10^−1 µg/µl
